ChEMBL document CHEMBL6177976, “Important Role of Triphenylamine in Modulating the Antibacterial Performance Relationships of Antimicrobial Peptide Mimics by Alkyl Chain Engineering” (J Med Chem, 2025)
The source made the active and inactive calls. No cut-off for these calls is given here.

Key:
Cell membrane [1] = experiment: Induction of Inner membrane integrity in Staphylococcus aureus at 128 uM measured for 40 mins in presence of cardiolipin by T12 dye based analysis
Staphylococcus aureus [2] = experiment: Antibacterial activity against Staphylococcus aureus incubated for 90 mins; type: functional, organism-based; conditions: dose 10.0 µM
Escherichia coli [3] = experiment: Antibacterial activity against Escherichia coli incubated for 90 mins; type: functional, organism-based
Cell membrane [4] = experiment: Induction of Inner membrane integrity in Staphylococcus aureus at 128 uM measured for 40 mins T12 dye based analysis; type: subcellular
Staphylococcus aureus [5] = experiment: Antibacterial activity against methicillin resistant Staphylococcus aureus assessed as bacterial viability at 10 uM incubated for 90 mins relative to control; type: functional; conditions: 1.5 h
Staphylococcus aureus [6] = experiment: Antibacterial activity against methicillin resistant Staphylococcus aureus assessed as bacterial viability up to 12 uM; type: functional, organism-based
HeLa [7] = experiment: Cytotoxicity against human HeLa cells at 32 uM incubated for 24 hrs by CCK-8 assay; type: functional, cell-based
Cell membrane [8] = experiment: Induction of cell membrane damage in Staphylococcus aureus assessed as increase in fluorescence intensity at 128 uM measured for 40 mins propidium iodide staining based analysis
Cell membrane [9] = experiment: Induction of Inner membrane integrity in Staphylococcus aureus at 128 uM measured for 40 mins in presence of phosphatidylglycerol by T12 dye based analysis; type: subcellular
Staphylococcus aureus [10] = experiment: Antibacterial activity against methicillin resistant Staphylococcus aureus assessed as bacterial viability at 4 uM incubated for 90 mins relative to control; type: functional; conditions: 1.5 h
Cell membrane [11] = experiment: Induction of cell membrane damage in Staphylococcus aureus at 20 uM incubated for 60 mins by SEM analysis; type: subcellular
Cell membrane [12] = experiment: Induction of Inner membrane integrity in Staphylococcus aureus measured for 40 mins in presence of cardiolipin by T12 dye based analysis; type: subcellular; conditions: dose 128.0 µM
Cell membrane [13] = experiment: Induction of Inner membrane integrity in Staphylococcus aureus measured for 40 mins in presence of phosphatidylglycerol by T12 dye based analysis; type: subcellular; conditions: dose 128.0 µM
Staphylococcus aureus [14] = experiment: Antibacterial activity against Staphylococcus aureus assessed as change in surface zeta potential at 16 uM incubated for 20 mins; type: functional, organism-based
Cell membrane [15] = experiment: Induction of cytoplasmic membrane permeabilization in Staphylococcus aureus assessed as increase in fluorescence intensity at 16 uM incubated for […] by SYTO 9 staining based analysis
Escherichia coli [16] = experiment: Antibacterial activity against Escherichia coli assessed as effect on bacterial growth incubated for 90 mins; type: functional, organism-based
Escherichia coli [17] = experiment: Antibacterial activity against Escherichia coli assessed as change in surface zeta potential at 16 uM incubated for 20 mins; type: functional, organism-based
Cell membrane [18] = experiment: Induction of cytoplasmic membrane permeabilization in Staphylococcus aureus assessed as increase in fluorescence intensity at 16 uM incubated for […] by CLSM analysis
HeLa [19] = experiment: Cytotoxicity against human HeLa cells at 32 uM measured after 60 mins by Calcein AM assay; type: functional, cell-based
HeLa [20] = experiment: Cytotoxicity against human HeLa cells at 32 uM incubated for 24 hrs by Calcein AM assay; type: functional, cell-based
HeLa [21] = experiment: Cytotoxicity against human HeLa cells assessed as dead cells at 32 uM measured after 24 hrs by PI staining based analysis; type: functional, cell-based
Cell membrane [22] = experiment: Induction of cell membrane damage in Staphylococcus aureus at 20 uM incubated for 60 mins by TEM analysis; type: subcellular
Staphylococcus aureus [23] = experiment: Antibacterial activity against Staphylococcus aureus assessed as increase in fluorescence intensity incubated for 20 mins; type: functional, organism-based
RAW264.7 = experiment: Cytotoxicity against mouse RAW264.7 cells at 32 uM incubated for 24 hrs by CCK-8 assay; type: toxicity, cell-based; conditions: raw264.7, 24 h
Staphylococcus aureus [24] = experiment: Induction of ROS accumulation in Staphylococcus aureus assessed as increase in singlet oxygen level by measuring reduction in HPF absorption peak at 10 uM irradiated with 650 nm 50 mW/cm2 light for 5 mins; type: functional, organism-based
Staphylococcus aureus [25] = experiment: Antibiofilm activity in Staphylococcus aureus assessed as inhibition of biofilm formation incubated for 48 hrs in presence of white light irradiation; type: functional, organism-based; conditions: dose <= 32.0 µM
Staphylococcus aureus [26] = experiment: Induction of ROS accumulation in Staphylococcus aureus assessed as fold increase in fluorescence intensity at 1 uM by DCFH-DA staining based analysis; type: functional
Staphylococcus aureus [27] = experiment: Bactericidal activity against Staphylococcus aureus assessed as bacterial viability at 4 uM pretreated with compound for 60 mins followed by white light irradiation for 30 mins by plate counting method; type: functional; conditions: time 90 min, 1.5 h
Staphylococcus aureus [28] = experiment: Antibiofilm activity in Staphylococcus aureus assessed as inhibition of biofilm formation at 8 uM incubated for 48 hrs; type: functional, organism-based
Staphylococcus aureus [29] = experiment: Drug resistance, ratio of MIC for Staphylococcus aureus after 20 passages to MIC for Staphylococcus aureus after initial exposure; type: functional
[30] = Hemolytic activity in sheep red blood cells assessed as hemolysis; type: toxicity, cell-based, Ovis aries, Erythrocyte
Staphylococcus aureus [31] = experiment: Bactericidal activity against Staphylococcus aureus assessed as bacterial viability at 4 uM by plate counting method relative to control; type: functional
Staphylococcus aureus [32] = experiment: Antibiofilm activity in Staphylococcus aureus assessed as inhibition of biofilm formation incubated for 48 hrs by SYTO 9 staining based CLSM analysis; type: functional, organism-based
Staphylococcus aureus [33] = experiment: Antibiofilm activity in Staphylococcus aureus assessed as inhibition of biofilm formation incubated for 48 hrs in presence of white light irradiation by SYTO 9 staining based CLSM analysis; type: functional, organism-based
Staphylococcus aureus [34] = experiment: Bactericidal activity against methicillin-resistant Staphylococcus aureus assessed as bacterial viability at 4 uM pretreated with compound for 60 mins followed by white light irradiation for 30 mins by plate counting method; type: functional; conditions: time 90 min, 1.5 h
Staphylococcus aureus [35] = experiment: Induction of ROS accumulation in Staphylococcus aureus assessed as increase in singlet oxygen level by measuring reduction in ABDA absorption peak at 10 uM irradiated with 650 nm 50 mW/cm2 light for 5 mins; type: functional, organism-based
Staphylococcus aureus [36] = experiment: Antibacterial activity against Staphylococcus aureus at 0.5 times MIC measured after 20 passages; type: functional, organism-based
Staphylococcus aureus [37] = experiment: Antipersister-activity against Staphylococcus aureus assessed as reduction in bacterial colony count preincubated with 100 times of MIC of rifampicin for 24 hrs followed by compound addition and measured after 8 hrs by drop plate counting method; type: functional, organism-based
Staphylococcus aureus [38] = experiment: Antibacterial activity against methicillin resistant Staphylococcus aureus infected in Kunming mouse model of skin wound infection assessed as effect on wound healing rate at 5 mg/kg administered for 7 days in presence of white light irradiation; type: functional, organism-based; conditions: time 7.0 day
Staphylococcus aureus [39] = experiment: Antibiofilm activity in Staphylococcus aureus assessed as inhibition of biofilm formation at 32 uM incubated for 48 hrs in presence of white light irradiation; type: functional; conditions: light or radiation study
Staphylococcus aureus [40] = experiment: Bactericidal activity against Staphylococcus aureus assessed as reduction in bacterial colony count measured at 2 hrs; type: functional, organism-based
Staphylococcus aureus [41] = experiment: Antibacterial activity against methicillin resistant Staphylococcus aureus infected in Kunming mouse model of skin wound infection assessed as effect on wound healing rate at 5 mg/kg administered for 7 days; type: functional, organism-based; conditions: time 7.0 day
Cell membrane [42] = experiment: Induction of cell membrane damage in Staphylococcus aureus assessed as decrease in fluorescence intensity at 128 uM measured for 40 mins propidium iodide staining based analysis; type: subcellular

With `C[N+](C)(C)CCCOc1ccc(/C=C/c2ccccc2)cc1.[Br-]` the Activity (Cell membrane [1]) was “inactive”, the Activity (Staphylococcus aureus [2]) was “Active” and the Activity (Escherichia coli [3]) was “Active”. The Activity (Cell membrane [4]) was “Active”, the Activity (Staphylococcus aureus [5]) was 60% and the Activity (Staphylococcus aureus [6]) was “Active”. For the same molecule, the Activity (HeLa [7]) was “Active”, the Activity (Cell membrane [8]) was “Active” and the Activity (Cell membrane [9]) was “inactive”.
With `CCCC[N+](C)(C)CCCOc1ccc(/C=C/c2ccc(N(c3ccccc3)c3ccccc3)cc2)cc1.[Br-]` the Activity (Staphylococcus aureus [2]) was “Active”, the Activity (Escherichia coli [3]) was “Active” and the Activity (Staphylococcus aureus [10]) was 2%. The Activity (Cell membrane [11]) was “Active”, the Activity (Cell membrane [12]) was “Dose-dependent-effect” and the Activity (Cell membrane [13]) was “Dose-dependent-effect”. The Activity (Cell membrane [4]) was “Active”, the Activity (Staphylococcus aureus [14]) was “Active” and the Activity (Cell membrane [15]) was “Active”. The Activity (Staphylococcus aureus [6]) was “Active”, the Activity (Escherichia coli [16]) was “inactive” and the Activity (HeLa [7]) was “Active”. The Activity (Escherichia coli [17]) was “Active” and the Activity (Cell membrane [18]) was “Active”.
For `CCCCCCCC[N+](C)(C)CCCOc1ccc(/C=C/c2ccccc2)cc1.[Br-]`, the Activity (Staphylococcus aureus [2]) was “Active”, the Activity (HeLa [19]) was “inactive” and the Activity (Escherichia coli [3]) was “Active”. The Activity (Cell membrane [11]) was “Active”, the Activity (Cell membrane [12]) was “Dose-dependent-effect” and the Activity (Cell membrane [13]) was “Dose-dependent-effect”. For the same molecule, the Activity (Cell membrane [4]) was “Active”, the Activity (Staphylococcus aureus [5]) was 4% and the Activity (Staphylococcus aureus [6]) was “Active”. For the same molecule, the Activity (HeLa [20]) was “inactive”, the Activity (HeLa [21]) was “Active” and the Activity (Cell membrane [8]) was “Active”.
For `CCCCCCCCCC[N+](C)(C)CCCOc1ccc(/C=C/c2ccccc2)cc1.[Br-]`, the Activity (Staphylococcus aureus [2]) was “Active”, the Activity (Escherichia coli [3]) was “Active” and the Activity (Cell membrane [11]) was “Active”. The Activity (Cell membrane [12]) was “Dose-dependent-effect”, the Activity (Cell membrane [13]) was “Dose-dependent-effect” and the Activity (Cell membrane [4]) was “Active”. For the same molecule, the Activity (Staphylococcus aureus [5]) was 0.1%, the Activity (Staphylococcus aureus [6]) was “Active” and the Activity (Cell membrane [8]) was “Active”.
For `C[N+](C)(C)CCCOc1ccc(/C=C/c2ccc(N(c3ccccc3)c3ccccc3)cc2)cc1.[Br-]`, the Activity (Cell membrane [22]) was “Active”, the Activity (Staphylococcus aureus [2]) was “Active” and the Activity (Staphylococcus aureus [23]) was “Active”. The Activity (RAW264.7) was “Non-toxic”, the Activity (Escherichia coli [3]) was “Active” and the Activity (Staphylococcus aureus [10]) was 3%. The Activity (Staphylococcus aureus [24]) was “Active”, the Activity (Cell membrane [11]) was “Active” and the Activity (Staphylococcus aureus [25]) was “Dose-dependent-effect”. For the same molecule, the “fold change (FC)” value (Staphylococcus aureus [26]) was 100, the Activity (Cell membrane [12]) was “Dose-dependent-effect” and the Activity (Staphylococcus aureus [27]) was 0.5%. The Activity (Cell membrane [13]) was “Dose-dependent-effect”, the Activity (Staphylococcus aureus [28]) was “Active” and the Ratio (Staphylococcus aureus [29]) was 64. For the same molecule, the Activity (Cell membrane [4]) was “Active”, the Activity (Staphylococcus aureus [14]) was “Active” and the HC50 [30] was over 900 µM. The Activity (Staphylococcus aureus [31]) was 11%, the Activity (Cell membrane [15]) was “Active” and the Activity (Staphylococcus aureus [6]) was “Active”. For the same molecule, the Activity (Staphylococcus aureus [32]) was “Active”, the Activity (Escherichia coli [16]) was “inactive” and the Activity (Staphylococcus aureus [33]) was “Active”. For the same molecule, the Activity (Staphylococcus aureus [34]) was about 100%, the Activity (HeLa [7]) was “Active” and the Activity (Staphylococcus aureus [35]) was “inactive”. For the same molecule, the Activity (Staphylococcus aureus [36]) was “Active”, the Activity (Staphylococcus aureus [37]) was “Active” and the Activity (Staphylococcus aureus [38]) was “Active”. The inhibition at 32 µM (Staphylococcus aureus [39]) was 100%, the Activity (Staphylococcus aureus [40]) was “Active” and the Activity (Escherichia coli [17]) was “Active”. For the same molecule, the Activity (Staphylococcus aureus [41]) was “Active” and the Activity (Cell membrane [18]) was “Active”.
In the case of `CCCCCCCCCC[N+](C)(C)CCCOc1ccc(/C=C/c2ccc(N(c3ccccc3)c3ccccc3)cc2)cc1.[Br-]`, the Activity (Cell membrane [1]) is reported as “inactive”, the Activity (Staphylococcus aureus [2]) is reported as “Active” and the Activity (Escherichia coli [3]) is reported as “Active”. The Activity (Staphylococcus aureus [10]) was 52%, the Activity (Cell membrane [42]) was “Active” and the Activity (Cell membrane [4]) was “Active”. The Activity (Staphylococcus aureus [6]) was “Active”, the Activity (Escherichia coli [16]) was “inactive” and the Activity (Cell membrane [9]) was “inactive”. For the same molecule, the Activity (Escherichia coli [17]) was “Active”.
With `CCCC[N+](C)(C)CCCOc1ccc(/C=C/c2ccccc2)cc1.[Br-]` the Activity (Cell membrane [1]) was “inactive”, the Activity (Staphylococcus aureus [2]) was “Active” and the Activity (Escherichia coli [3]) was “Active”. For the same molecule, the Activity (Cell membrane [4]) was “Active”, the Activity (Staphylococcus aureus [5]) was 55% and the Activity (Staphylococcus aureus [6]) was “Active”. For the same molecule, the Activity (HeLa [7]) was “Active”, the Activity (Cell membrane [8]) was “Active” and the Activity (Cell membrane [9]) was “inactive”.
With `CCCCCCCC[N+](C)(C)CCCOc1ccc(/C=C/c2ccc(N(c3ccccc3)c3ccccc3)cc2)cc1.[Br-]` the Activity (Cell membrane [1]) was “inactive”, the Activity (Staphylococcus aureus [2]) was “Active” and the Activity (HeLa [19]) was “inactive”. The Activity (Escherichia coli [3]) was “Active”, the Activity (Staphylococcus aureus [10]) was 28% and the Activity (Cell membrane [42]) was “Active”. The Activity (Cell membrane [4]) was “Active”, the HC50 [30] was 75 µM and the Activity (Staphylococcus aureus [6]) was “Active”. The Activity (Escherichia coli [16]) was “inactive”, the Activity (HeLa [20]) was “inactive” and the Activity (HeLa [21]) was “Active”. For the same molecule, the Activity (Cell membrane [9]) was “inactive” and the Activity (Escherichia coli [17]) was “Active”.
